Usually IC50 stands for the concentration that inhibits the measured activity by half. The term melting point denotes the temperature of the solid-liquid transition.

From paper PMC7889231 (Journal of Enzyme Inhibition and Medicinal Chemistry, 2021) come the findings set out here.

Like-named read-outs stand apart in the source and are kept apart here.

Data set [1] concerns HepG-2. The experiment in a line: MTT anti-proliferative assay, HepG-2. The format is cell-based, human. As to conditions: for IC50: Homo sapiens; for times of colchicine cytotoxic activity, HepG-2: ratio of IC50 to colchicine.
Data set [2] relates to HCT-116. The experiment in a line: MTT anti-proliferative assay, HCT-116. Particulars: for IC50: Homo sapiens; for times of colchicine cytotoxic activity, HCT-116: ratio of IC50 to colchicine. It counts as cell-based, human.
In data set [3] the test system is MCF-7. The experiment in a line: MTT anti-proliferative assay, MCF-7. It counts as cell-based, human. As to conditions: for IC50: Homo sapiens. In general terms: Tetrazolium assays rely on reduction of a dye to a coloured formazan, in cell work by metabolically active cells.
The subject of data set [4] is tubulin. The experiment in a line: In vitro tubulin polymerisation inhibition (turbidimetric, fluorescent plate reader). The format is biochemical. Particulars: mean of three experiments. The protocol: The inhibition assay on microtubule polymerisation was evaluated turbidimetrically using a fluorescent plate reader.
The effect of the synthesised compounds on tubulin polymerisation was assessed turbidimetrically using a fluorescent plate reader method. The complete procedure was depected in Supplementary data.

The subject of data set [5] is HepG-2, HCT-116, and MCF-7. The experiment in a line: MTT anti-proliferative assay, ranges stated over several cell lines. The format is cell-based. As to conditions: Homo sapiens.
For data set [6], the system named is HepG-2 cells. The experiment in a line: Cell cycle analysis by flow cytometry. The format is cell-based, human. As to conditions: HepG-2, 1.89 µM, 24 h. Here is the method: The impact of the most promising compound 25 on cell cycle distribution was assessed. Such analysis gave a better insight into the effect of the synthesised compounds on cancer cell growth inhibition. HepG-2 cells were utilised in this test. The reported method described by Wand et al.[50] was followed.
The effect of the most promising compound 25 on cell cycle was evaluated using flowcytometer[50]^,[53]^,[54] as illustrated in Supplementary data.
On the technique in general: In flow cytometry, cells or beads pass a laser one at a time.

The test system of data set [7] is HepG-2 cells. The experiment in a line: Annexin V-FITC/PI apoptosis assay. It counts as cell-based, human. As to conditions: HepG-2, 1.89 µM, 24 h. Here is the method: Annexin V and PI double staining assay[51] was carried out to explore the proposed apoptotic effect of the synthesised compounds. Compound 25 as a representative example was tested against HepG-2 cells. In this test, HepG-2 cells were incubated with compound 25 at a concentration of 1.89 µM for 24 h.
The effect of compound 25 on apoptosis induction was analysed using Annexin V-FITC/PI apoptosis detection kit using flowcytometer[51]^,[55]^,[56] as illustrated in Supplementary data.

The mark [8] stands for this setting: HepG2, MTT, mean ± SD of three experiments, read-out: IC50 HepG-2.
Where [9] appears, read: HCT-116, MTT, mean ± SD of three experiments, read-out: IC50 HCT-116.
The mark [10] stands for this setting: MCF7, MTT, mean ± SD of three experiments, read-out: IC50 MCF-7.
Where [11] appears, read: range over HepG-2, HCT-116 and MCF-7 and over the listed compounds, read-out: IC50 values ranging (all tested cell lines).
Where [12] appears, read: range over HCT-116 and MCF-7 and over the listed compounds, read-out: IC50 values ranging (HCT-116 and MCF-7).

In turn, `COc1ccc2nc(Cl)c(C3CC(c4ccc(N)cc4)=NN3c3ccccc3)cc2c1` (stereo not drawn) [Compound 21, 4-[5–(2-Chloro-6-methoxyquinolin-3-yl)-1-phenyl-4,5-dihydro-1H-pyrazol-3-yl]aniline] displayed a melting point of 136 to 137 °C. For the same molecule, the IC50 in data set [1] (setting [8]) is 7.32 ± 0.2 µM. Further, the IC50 in data set [2] (setting [9]) was determined as 8.91 ± 0.3 µM. Further, in data set [3] (setting [10]), the IC50 is 9.19 ± 0.3 µM. In data set [4], this molecule came in with a concentration for half-maximal inhibition (IC50) of 9.11 nM. Also, the IC50 in data set [5] (setting [11]) lay within 1.78 to 9.19 µM.

For `COc1ccc2nc(Cl)c(-c3cc(-c4cc(OC)c(OC)c(OC)c4)nc(=S)[nH]3)cc2c1` [Compound 28, 6–(2-Chloro-6-methoxyquinolin-3-yl)-4–(3,4,5-trimethoxyphenyl)pyrimidine-2(1H)-thione], the melting point was 141 to 142 °C. The IC50 in data set [1] (setting [8]) amounted to 5.47 ± 0.2 µM. In addition, in data set [2] (setting [9]), the concentration for half-maximal inhibition (IC50) was 5.85 ± 0.3 µM. For the same molecule, in data set [3] (setting [10]), the IC50 turned out to be 7.34 ± 0.2 µM. Also, inhibition in data set [4] was half-maximal at 37.4 nM (IC50). Further, in data set [5] (setting [11]), the IC50 fell in the range of 1.78 to 9.19 µM.

As for `COc1ccc2nc(Cl)c(C3CC(c4ccc(Cl)cc4)=NN3C(N)=S)cc2c1` (stereo not drawn) [Compound 14, 5–(2-Chloro-6-methoxyquinolin-3-yl)-3–(4-chlorophenyl)-4,5-dihydro-1H-pyrazole-1-carbothioamide], the melting point was 136 to 137 °C. For the same molecule, the IC50 in data set [1] (setting [8]) turned out to be 8.92 ± 0.4 µM. Besides, the IC50 in data set [2] (setting [9]) turned out to be 7.62 ± 0.4 µM. In addition, the IC50 in data set [3] (setting [10]) came out at 10 ± 0.4 µM. In data set [4], the IC50 was determined as 50.1 nM. For the same molecule, the IC50 in data set [5] (setting [12]) is 6.48 to 10.3 µM.

Consider `COc1ccc2nc(Cl)c(C3CC(c4ccc(Cl)cc4)=NN3c3ccccc3)cc2c1` (stereo not drawn) [Compound 20, 2-Chloro-3-[3–(4-chlorophenyl)-1-phenyl-4,5-dihydro-1H-pyrazol-5-yl]-6-methoxyquinoline], for which the melting point was in the range of 145 to 146 °C. For the same molecule, the IC50 in data set [1] (setting [8]) was found to be 2.6 ± 0.1 µM. In data set [1], the “times of colchicine cytotoxic activity, HepG-2” value was 5.15 times. Besides, in data set [2] (setting [9]), the IC50 came out at 1.81 ± 0.1 µM. Besides, in data set [2], the “times of colchicine cytotoxic activity, HCT-116” value stood at 2.84 times. Besides, the IC50 in data set [3] (setting [10]) is 4.51 ± 0.2 µM. The same molecule returned an IC50 in data set [4] of 36.8 nM. Besides, in data set [5] (setting [11]), the IC50 is 1.78 to 9.19 µM.

`COc1ccc2nc(Cl)c(-c3cc(-c4ccc(N)cc4)nc(=O)[nH]3)cc2c1` [Compound 33, 4–(4-Aminophenyl)-6–(2-chloro-6-methoxyquinolin-3-yl)pyrimidin-2(1H)-one] displayed a melting point of 171 to 172 °C. Besides, in data set [1] (setting [8]), the half-inhibitory concentration (IC50) amounted to 9.37 ± 0.4 µM. The IC50 in data set [2] (setting [9]) was determined as 8.5 ± 0.2 µM. Besides, the IC50 in data set [3] (setting [10]) turned out to be 10.3 ± 0.5 µM. In data set [4], this molecule returned an IC50 of 47.2 nM. Further, in data set [5] (setting [12]), the IC50 fell in the range of 6.48 to 10.3 µM.

`COc1ccc2nc(Cl)c(C3CC(c4ccc(N)cc4)=NN3c3ccc([N+](=O)[O-])cc3[N+](=O)[O-])cc2c1` (stereo not drawn) [Compound 24, 4-[5–(2-Chloro-6-methoxyquinolin-3-yl)-1–(2,4-dinitrophenyl)-4,5-dihydro-1H-pyrazol-3-yl]aniline] came in with a melting point of 139 to 140 °C. In addition, in data set [1] (HepG2, read-out: IC50 HepG-2), the IC50 is 3.14 ± 0.1 µM. For the same molecule, the IC50 in data set [2] (HCT-116, read-out: IC50 HCT-116) was found to be 4.18 ± 0.2 µM. In data set [3] (MCF7, read-out: IC50 MCF-7), the IC50 was 4.97 ± 0.1 µM. For the same molecule, inhibition in data set [4] was half-maximal at 146 nM (IC50). The IC50 in data set [5] (read-out: IC50 values ranging (all tested cell lines)) was in the range of 1.78 to 9.19 µM.

Regarding `COc1ccc2nc(Cl)c(C3CC(c4cc(OC)c(OC)c(OC)c4)=NN3c3ccc([N+](=O)[O-])cc3[N+](=O)[O-])cc2c1` (stereo not drawn) [Compound 25, 2-Chloro-3-[1–(2,4-dinitrophenyl)-3–(3,4,5-trimethoxyphenyl)-4,5-dihydro-1H-pyrazol-5-yl]-6-methoxyquinoline], the melting point lay in the range of 135 to 136 °C. Moreover, the IC50 in data set [1] (setting [8]) is 1.89 ± 0.2 µM. Moreover, the “times of colchicine cytotoxic activity, HepG-2” value in data set [1] is 3.91 times. In addition, the IC50 in data set [2] (setting [9]) is 1.43 ± 0.1 µM. Moreover, the “times of colchicine cytotoxic activity, HCT-116” value in data set [2] amounted to 6.51 times. For the same molecule, the IC50 in data set [3] (setting [10]) is 4.21 ± 0.1 µM. The “times of colchicine cytotoxic activity, MCF-7” value in data set [3] (ratio of IC50 to colchicine) amounted to 2.47 times. Moreover, the IC50 in data set [4] was found to be 41.3 nM. Further, the “effect on cell cycle” value in data set [6] is reported as “arrest the cell cycle at G2/M phase”. For the same molecule, in data set [6] (control 2.57), the “Cell cycle distribution %Pre-G1” value was 21.46%. Moreover, the “Cell cycle distribution %G2-M” value in data set [6] (control 13.8) was determined as 30.17%. For the same molecule, the “Cell cycle distribution %S” value in data set [6] (control 24.83) worked out at 28.95%. Besides, the “Cell cycle distribution %G0-G1” value in data set [6] (control 61.37) is 40.88%. Moreover, in data set [7], the “apoptotic effect relative to control” value is “thirteen times more than the control”. Also, the “Apoptosis Early” value in data set [7] (control 0.67) turned out to be 7.66%. Also, the “Apoptosis Late” value in data set [7] (control 0.72) was 11.39%. The molecule also had a Necrosis in data set [7] (control 1.18) of 2.41%. In data set [7] (control 1.39%), the “apoptotic effect (early and late apoptosis)” value was found to be 19.05%. Moreover, the IC50 in data set [5] (setting [11]) was 1.78 to 9.19 µM.

The molecule `COc1ccc2nc(Cl)c(-c3cc(-c4ccc(Cl)cc4)nc(=O)[nH]3)cc2c1` [Compound 32, 6–(2-Chloro-6-methoxyquinolin-3-yl)-4–(4-chlorophenyl)pyrimidin-2(1H)-one] yielded a melting point of 180 to 181 °C. Besides, the IC50 in data set [1] (setting [8]) is 8.16 ± 0.2 µM. For the same molecule, the IC50 in data set [2] (setting [9]) was 6.48 ± 0.2 µM. In addition, the IC50 in data set [3] (setting [10]) came to 9.89 ± 0.4 µM. In data set [4], this molecule registered an IC50 of 10.5 nM. The IC50 in data set [5] (setting [12]) was 6.48 to 10.3 µM.

Turning to `COc1ccc2nc(Cl)c(C3CC(c4cc(OC)c(OC)c(OC)c4)=NN3c3ccccc3)cc2c1` (stereo not drawn) [Compound 22, 2-Chloro-6-methoxy-3-[1-phenyl-3–(3,4,5-trimethoxyphenyl)-4,5-dihydro-1H-pyrazol-5-yl]quinoline], the melting point lay within 136 to 137 °C. Further, the IC50 in data set [1] (setting [8]) came out at 4.76 ± 0.2 µM. Further, the IC50 in data set [2] (setting [9]) is 3.04 ± 0.3 µM. In data set [3] (setting [10]), the IC50 came to 6.45 ± 0.2 µM. This molecule had an IC50 in data set [4] of 19.1 nM. In addition, in data set [5] (setting [11]), the IC50 is 1.78 to 9.19 µM.
